Experimental data taken from ChEMBL document CHEMBL1153043, “Synthesis and evaluation of 1-(benzo[b]thiophen-2-yl)ethanone analogues as novel anti-osteoporosis agents acting on BMP-2 promotor” (Bioorg Med Chem Lett, 2009).

Tests used:
[1] = Enhancement of BMP-2 expression in mouse MC3T3-E1 cells assessed as upregulation rate at 4 uM; assay type: functional, cell-based
Rattus norvegicus [2] = assay: Antiosteoporotic activity in ovariectomized Sprague-Dawley rat assessed as trabecula resorption surface at 10 mg/kg/day, po for 90 days by bone histomorphometry; assay type: functional
Rattus norvegicus [3] = assay: Antiosteoporotic activity in ovariectomized Sprague-Dawley rat assessed as trabecula resorption surface at 20 mg/kg/day, po for 90 days by bone histomorphometry; assay type: functional
Rattus norvegicus [4] = assay: Antiosteoporotic activity in ovariectomized Sprague-Dawley rat assessed as trabecula resorption surface at 40 mg/kg/day, po for 90 days by bone histomorphometry; assay type: functional
Rattus norvegicus [5] = assay: Antiosteoporotic activity in ovariectomized Sprague-Dawley rat assessed as trabecula formation surface at 10 mg/kg/day, po for 90 days by bone histomorphometry; assay type: functional
Rattus norvegicus [6] = assay: Antiosteoporotic activity in ovariectomized Sprague-Dawley rat assessed as trabecula formation surface at 20 mg/kg/day, po for 90 days by bone histomorphometry; assay type: functional
Rattus norvegicus [7] = assay: Antiosteoporotic activity in ovariectomized Sprague-Dawley rat assessed as trabecula formation surface at 40 mg/kg/day, po for 90 days by bone histomorphometry; assay type: functional
Rattus norvegicus [8] = assay: Antiosteoporotic activity in ovariectomized Sprague-Dawley rat assessed as mineral apposition rate at 10 mg/kg/day, po for 90 days by bone histomorphometry; assay type: functional
Rattus norvegicus [9] = assay: Antiosteoporotic activity in ovariectomized Sprague-Dawley rat assessed as mineral apposition rate at 20 mg/kg/day, po for 90 days by bone histomorphometry; assay type: functional
Rattus norvegicus [10] = assay: Antiosteoporotic activity in ovariectomized Sprague-Dawley rat assessed as mineral apposition rate at 40 mg/kg/day, po for 90 days by bone histomorphometry; assay type: functional
Rattus norvegicus [11] = assay: Antiosteoporotic activity in ovariectomized Sprague-Dawley rat assessed as osteo cortex mineralization rate at 10 mg/kg/day, po for 90 days by bone histomorphometry; assay type: functional
Rattus norvegicus [12] = assay: Antiosteoporotic activity in ovariectomized Sprague-Dawley rat assessed as osteo cortex mineralization rate at 20 mg/kg/day, po for 90 days by bone histomorphometry; assay type: functional
Rattus norvegicus [13] = assay: Antiosteoporotic activity in ovariectomized Sprague-Dawley rat assessed as osteo cortex mineralization rate at 40 mg/kg/day, po for 90 days by bone histomorphometry; assay type: functional
Rattus norvegicus [14] = assay: Antiosteoporotic activity in ovariectomized Sprague-Dawley rat assessed as average osteoid width at 10 mg/kg/day, po for 90 days by bone histomorphometry; assay type: functional
Rattus norvegicus [15] = assay: Antiosteoporotic activity in ovariectomized Sprague-Dawley rat assessed as average osteoid width at 20 mg/kg/day, po for 90 days by bone histomorphometry; assay type: functional
Rattus norvegicus [16] = assay: Antiosteoporotic activity in ovariectomized Sprague-Dawley rat assessed as average osteoid width at 40 mg/kg/day, po for 90 days by bone histomorphometry; assay type: functional
Rattus norvegicus [17] = assay: Antiosteoporotic activity in ovariectomized Sprague-Dawley rat assessed as trabecular bone volume at 10 mg/kg/day, po for 90 days by bone histomorphometry; assay type: functional, Trabecula
Rattus norvegicus [18] = assay: Antiosteoporotic activity in ovariectomized Sprague-Dawley rat assessed as trabecular bone volume at 20 mg/kg/day, po for 90 days by bone histomorphometry; assay type: functional, Trabecula
Rattus norvegicus [19] = assay: Antiosteoporotic activity in ovariectomized Sprague-Dawley rat assessed as trabecular bone volume at 40 mg/kg/day, po for 90 days by bone histomorphometry; assay type: functional, Trabecula
Rattus norvegicus [20] = assay: Antiosteoporotic activity in ovariectomized Sprague-Dawley rat assessed as trabecula resorption surface at 5 mg/kg/day, po for 90 days by bone histomorphometry; assay type: functional
Rattus norvegicus [21] = assay: Antiosteoporotic activity in ovariectomized Sprague-Dawley rat assessed as trabecula formation surface at 5 mg/kg/day, po for 90 days by bone histomorphometry; assay type: functional
Rattus norvegicus [22] = assay: Antiosteoporotic activity in ovariectomized Sprague-Dawley rat assessed as mineral apposition rate at 5 mg/kg/day, po for 90 days by bone histomorphometry; assay type: functional
Rattus norvegicus [23] = assay: Antiosteoporotic activity in ovariectomized Sprague-Dawley rat assessed as osteo cortex mineralization rate at 5 mg/kg/day, po for 90 days by bone histomorphometry; assay type: functional
Rattus norvegicus [24] = assay: Antiosteoporotic activity in ovariectomized Sprague-Dawley rat assessed as average osteoid width at 5 mg/kg/day, po for 90 days by bone histomorphometry; assay type: functional
Rattus norvegicus [25] = assay: Antiosteoporotic activity in ovariectomized Sprague-Dawley rat assessed as trabecular bone volume at 5 mg/kg/day, po for 90 days by bone histomorphometry; assay type: functional, Trabecula
[26] = Enhancement of BMP-2 expression in mouse MC3T3-E1 cells assessed as upregulation rate at 0.4 uM; assay type: functional, cell-based

NNC(=O)c1cc2ccccc2s1
Activity [1]: 7.8%

CC(=O)c1cc2cc(C(F)(F)F)ccc2s1
Activity [1]: 18.5%

CC(=O)c1cc2cccc(C(F)(F)F)c2s1
Activity [1]: 30.2%

CC(=O)c1sc2ccc(C)c(Cl)c2c1C
Activity [1]: 6.5%

CC(=O)c1cc2ccccc2o1
Activity (Rattus norvegicus [2]): 7.84%
Activity (Rattus norvegicus [3]): 7.15%
Activity (Rattus norvegicus [4]): 5.3%
Activity (Rattus norvegicus [5]): 7.26%
Activity (Rattus norvegicus [6]): 6.75%
Activity (Rattus norvegicus [7]): 6.74%
Activity (Rattus norvegicus [8]): 2.31 µm/day
Activity (Rattus norvegicus [9]): 2.34 µm/day
Activity (Rattus norvegicus [10]): 2.2 µm/day
Activity (Rattus norvegicus [11]): 3.28 µm/day
Activity (Rattus norvegicus [12]): 3.51 µm/day
Activity (Rattus norvegicus [13]): 3.3 µm/day
Activity (Rattus norvegicus [14]): 11.2 µm
Activity (Rattus norvegicus [15]): 11.6 µm
Activity (Rattus norvegicus [16]): 11 µm
Activity [1]: 33.5%
Activity (Rattus norvegicus [17]): 12.39%
Activity (Rattus norvegicus [18]): 13.13%
Activity (Rattus norvegicus [19]): 17.5%

CC(=O)c1cc2c(Cl)c(C)ccc2s1
Activity [1]: 39.8%

O=C(c1ccc(OCCN2CCCCC2)cc1)c1c(-c2ccc(O)cc2)sc2cc(O)ccc12 [RALOXIFENE]
Activity (Rattus norvegicus [20]): 3.34%
Activity (Rattus norvegicus [21]): 6.52%
Activity (Rattus norvegicus [22]): 2.14 µm/day
Activity (Rattus norvegicus [23]): 3.15 µm/day
Activity (Rattus norvegicus [24]): 11.1 µm
Activity (Rattus norvegicus [25]): 22.31%

CC[C@H](C)C(=O)O[C@H]1C[C@@H](C)C=C2C=C[C@H](C)[C@H](CC[C@@H]3C[C@@H](O)CC(=O)O3)[C@H]21
Activity [26]: 20.9%

CC(=O)c1cc2c(Cl)cccc2s1
Activity [1]: 27.9%

CC(=O)c1cc2c(Cl)ccc(C)c2s1
Activity [1]: 32%
